From patent US10925872B2, “Methods of treating cochlear synaptopathy” (PIPELINE THERAPEUTICS, INC., priority 2016, dated 2021)

Tests used:
[1] = test system: DCC α-fragment; assay: DCC α-fragment Western blot of cochlea after round window delivery in vivo; parameters: species or system CBA/J mice; conditions: 2% in vehicle, 2 μl bilaterally to the round window, one week later
Description: Compound I (2% in vehicle, 2 μl) or vehicle (2 μl) was delivered bilaterally to the round window of CBA/J mice. One week later, cochlea were collected and processed for Western blot. Both cochlea from two animals were used to generate each data point. Cochlea were homogenized in 50 μL radioimmunoprecipitation assay buffer then allowed to lyse further at 4° C. for 1 h. Bone was spun out and 4× sample loading buffer added. Samples were run on a 4-15% TGX gradient gel (BioRad, Hercules, Calif.) and transferred to a nitrocellulose membrane and blocked with Odyssey Blocking Buffer (LI-COR, NE). Blots were probed with mouse DCC (BD Biosciences, San Jose, Calif.) at 1:500, and rabbit actin (loading control) antibodies (Li-Cor, NE) in blocking buffer containing 0.1% Tween-20. Membranes were washed with PBS/0.1% Tween then incubated in secondary antibody (goat anti-mouse IRDye 680LT and goat anti-rabbit IRDye 800LT, both from LI-COR, NE) diluted 1:10,000 in blocking buffer containing 0.1% Tween-20 and 0.01% SDS. Membranes were washed in PBS then imaged on a LiCor Odyssey Classic scanner and the DCC α-fragment quantified using ImageJ.

[2] = test system: inner hair cell synapses; assay: Guinea pig kanamycin-induced cochlear synaptopathy model; assay type: in vivo, Hartley guinea pigs; conditions: kanamycin 400 mg/kg i.p. 10 days; 30 μl of 2% in vehicle bilateral transtympanic on day 15; three months after
Description: Beginning on day 0, male Hartley guinea pigs (450-500 g) were deafened by intraperitoneal administration of kanamycin (400 mg/kg) dosed once daily for 10 consecutive days. […] A loss of synapse density in this model has not been described previously. On day 15, animals received bilateral transtympanic injections of vehicle (30 μl), crystalline Compound I (30 μl of 2% in vehicle), or crystalline Compound II (30 μl of 2% in vehicle). Three months after administration of test article, animals were euthanized and cochleae collected and stained with phalloidin and antibodies against CtBP2 and NF-200. The number of CtBP2+/NF-200+ synapses were quantified and normalized to the number of inner hair cells to obtain synapse density. Synapse density was decreased with kanamycin treatment at 14.7 and 17.3 mm from the apex of the cochlea, which in the guinea pig cochlea, tonally correlates with 16 and 32 kHz, respectively, according to the Greenwood frequency map.
Vehicle (PF10) and GSI in vehicle used in Examples 6 and 7 were prepared as follows: To 129 mL sterile water was added, 0.96 g sodium chloride, 0.59 g sodium phosphate dibasic, and 0.14 g sodium phosphate monobasic. The solution was stirred at ambient temperature and 25.6 g poloxamer 407 was added and stirred overnight to yield a clear solution. […]

In the case of `C[C@H](OC(=O)NCC(F)(F)C(F)(F)F)C(=O)N[C@@H]1C(=O)Nc2ccccc2-c2ccccc21` [Compound I, (2,2,3,3,3-pentafluoropropyl)-carbamic acid (S)-1-((S)-6-oxo-6,7-dihydro-5H-dibenzo[b,d]azepin-7-ylcarbamoyl) ethyl ester], the “DCC α-fragment compared to vehicle alone” value [1] is reported as “approximately two fold increase” and the “synapse density (CtBP2+/NF-200+ synapses per inner hair cell)” value [2] is reported as “increased”.
